Counter-ions that a name gives are not always drawn. Like-named read-outs stand apart in the source and are kept apart here.
Experiments:
[1] = in words; cited from earlier work
muscarinic receptors [2] = details: in words; cited from earlier work
[3] = in words; cited from earlier work; remark: listed apart in the source
muscarinic receptors [4] = details: known; in words; cited from earlier work
[5] = biological target: muscarinic receptors in the CNS; details: cited from earlier work
[6] = biological target: muscarinic acetylcholine receptors; assay: Inhibition of specific binding of 3H-Oxotremorine-M (3H-Oxo); parameters: species or system rat (male Wistar; details: rat cortex; 3H-Oxotremorine 1.0 nM; 20 mM Hepes pH 7.4; 30 min at 25° C.
Description: The pharmacological properties of the compounds of the present invention (Formula I) can be illustrated by determining their capability to inhibit the specific binding of ^3 H-Oxotremorine-M (^3 H-Oxo).
^3 H-Oxo labels muscarinic receptors in the CNS (with a preference for agonist domaines of the receptors). Three different sites are labelled by 3H-Oxo. These sites have affinity of 1.0, 20 and 3000 nM, respectively. Using the present experimental conditions only the high and medium affinity sites are determined. The inhibitory effects of compounds on ^3 H-Oxo binding reflects the affinity for muscarinic acetylcholine receptors.
All preparations are performed at 0°-4° C. unless otherwise indicated. Fresh cortex (0.1-1 g) from male Wistar rats (150-250 g) is homogenized for 5-10 s in 10 ml 20 mM Hepes pH: 7.4, with an Ultra-Turrax homogenizer. The homogenizer is rinsed with 10 ml of buffer and the combined suspension centrifuged for 15 min at 40,000×g. The pellet is washed three times with buffer. In each step the pellet is homogenized as before in 2×10 ml of buffer and centrifuged for 10 min at 40,000×g. The final pellet is homogenized in 20 mM Hepes pH: 7.4 (100 ml per g of original tissue) and used for binding assay. Aliquots of 0.5 ml is added 25 μl of test solution and 25 μl of ^3 H-Oxotremorine (1.0 nM, final concentration) mixed and incubated for 30 min at 25° C. Non-specific binding is determined in triplicate using Arecoline (1 μg/ml, final concentration) as the test substance. After incubation samples are added 5 ml of ice-cold buffer and poured directly onto Whatman GF/C glass fiber filters under suction and immediately washed 2 times with 5 ml of ice-cold buffer. The amount of radioactivity on the filters are determined by conventional liquid scintillation counting. Specific binding is total binding minus non-specific binding. Test substances are dissolved in 10 ml water (if necessary heated on a steam-bath for less than 5 minutes) at a concentration of 2.2 mg/ml. 25-75% inhibition of specific binding must be obtained before calculation of IC50.
The test value will be given as IC50 (the concentration (ng/ml) of the test substance which inhibits the specific binding of ^3 H-Oxo by 50%). [formula] where Co is specific binding in control assays and Cx is the specific binding in the test assay. (The calculations assume normal mass-action kinetics).

Compound	Inhibition in vitro OXO BINDING (IC50: concentration which inhibits the specific binding of 3H-Oxo by 50%) [6]	other results
COC(=O)C1=CCCN(C)C1 [arecoline, methyl 1-methyl-1,2,5,6-tetrahydropyridine-3-carboxylate]		toxicity [1]: rather toxic compound; separation between central and peripheral muscarinic effects (muscarinic receptors [2]): small separation between central and peripheral muscarinic effects; biological half life [3]: very short biological half life; muscarinic agonist or antagonist activity (muscarinic receptors [4]): cholinergic agonist
C[N+](C)(C)CC#CCN1CCCC1=O [Compound 3H-Oxo, ^3 H-Oxotremorine-M]		Kd ([5]; high affinity site, read-out: affinity of 3H-Oxo, first (high affinity) site): 0.001 µM; Kd ([5]; medium affinity site, read-out: affinity of 3H-Oxo, second (medium affinity) site): 0.02 µM; Kd ([5]; third site, not determined under the present experimental conditions, read-out: affinity of 3H-Oxo, third site): 3 µM
CCCCCCOc1nsnc1C1=CCCNC1.O=C(O)C(=O)O [Compound 37, 1,2,5,6-tetrahydro-3-(4-hexyloxy-1,2,5-thiadiazol-3-yl) pyridine oxalate]	6.3 ng/mL	
CCC/C=C\COc1nsnc1C1=CCCN(C)C1.O=C(O)C(=O)O [Compound 32, cis-3-(4-(2-hexenyloxy)-1,2,5-thiadiazol-3-yl)-1,2,5,6-tetrahydro-1-methylpyridine oxalate]	1.4 ng/mL	
CN1CCC=C(c2nsnc2OCC2CC2)C1.O=C(O)C(=O)O [Compound 14, 3-(4-cyclopropylmethoxy-1,2,5-thiadiazol-3-yl)-1,2,5,6-tetrahydro-1-methylpyridine oxalate]	0.4 ng/mL	
Cl.Clc1nsnc1C1=CCCNC1 [Compound 17, 3-(4-chloro-1,2,5-thiadiazol-3-yl)-1,2,5,6-tetrahydropyridine hydrochloride]	19.0 ng/mL	
CCCCCCCCOc1nsnc1C1=CCCN(C)C1 [Compound 25, 3-(4-octyloxy-1,2,5-thiadiazol-3-yl)-1,2,5,6-tetrahydro-1-methylpyridineoxalate]	12 ng/mL	
CN1CCC=C(c2nsnc2OCc2ccccc2)C1.O=C(O)C(=O)O [Compound 10, 3-(4-benzyloxy-1,2,5-thiadiazol-3-yl)-1,2,5,6-tetrahydro-1-methylpyridine oxalate]	2.3 ng/mL	
CCCCCCOc1nsnc1C1=CCCN(C)C1 [Compound 9, 3-(4-hexyloxy-1,2,5-thiadiazol-3-yl)-1,2,5,6-tetrahydro-1-methylpyridineoxalate]	3.6 ng/mL	
CC(C)=CCOc1nsnc1C1=CCCN(C)C1.O=C(O)C(=O)O [Compound 27, 3-(4-(3-methyl-2-butenyloxy)-1,2,5-thiadiazol-3-yl)-1,2,5,6-tetrahydro-1-methylpyridine oxalate]	0.8 ng/mL	
CC/C=C\COc1nsnc1C1=CCCN(C)C1.O=C(O)C(=O)O [Compound 31, cis-3-(4-(2-pentenyloxy)-1,2,5-thiadiazol-3-yl)-1,2,5,6-tetrahydro-1-methylpyridine oxalate]	0.7 ng/mL	
CC/C=C/CCOc1nsnc1C1=CCCN(C)C1.O=C(O)C(=O)O [Compound 30, trans-3-(4-(3-hexenyloxy)-1,2,5-thiadiazol-3-yl)-1,2,5,6-tetrahydro-1-methylpyridine oxalate]	0.4 ng/mL	
CCOc1nsnc1C1=CCCN(C)C1.O=C(O)C(=O)O [Compound 2, 3-(4-ethoxy-1,2,5-thiadiazol-3-yl)-1,2,5,6-tetrahydro-1-methylpyridine oxalate]	0.4 ng/mL	
CN1CCC=C(c2nsnc2Cl)C1.O=C(O)C(=O)O [Compound 16, 3-(4-chloro-1,2,5-thiadiazol-3-yl)-1,2,5,6-tetrahydro-1-methylpyridine oxalate]	3.3 ng/mL	
CN1CCC=C(c2cnsn2)C1.O=C(O)C(=O)O [Compound 36, 3-(1,2,5-thiadiazol-3-yl)-1,2,5,6-tetrahydro-1-methylpyridine oxalate]	0.3 ng/mL	
CN1CCC=C(c2nsnc2N2CCOCC2)C1 [Compound 45, 3-(4-morpholino-1,2,5-thiadiazol-3-yl)-1,2,5,6-tetrahydro-1-methylpyridineoxalate]	115 ng/mL	
CC(=O)OC1CN2CCC1CC2 (stereo not shown) [3-acetoxy-quinuclidine]		toxicity [1]: the same as indicated for arecoline; separation between central and peripheral muscarinic effects (muscarinic receptors [2]): the same as indicated for arecoline; biological half life [3]: the same as indicated for arecoline; muscarinic agonist or antagonist activity (muscarinic receptors [4]): muscarinic agonist
COc1nsnc1C1=CCCN(C)C1.O=C(O)C(=O)O [Compound 1, 1,2,5,6-tetrahydro-3-(4-methoxy-1,2,5-thiadiazol-3-yl)-1-methylpyridine oxalate]	1.5 ng/mL	
COCCOc1nsnc1C1=CCCN(C)C1.O=C(O)C(=O)O [Compound 15, 1,2,5,6-tetrahydro-3-(4-methoxyethoxy-1,2,5-thiadiazol-3-yl)-1-methylpyridine oxalate]	0.6 ng/mL	
C#CCOc1nsnc1C1=CCCN(C)C1.O=C(O)C(=O)O [Compound 13, 1,2,5,6-tetrahydro-1-methyl-3-(4-propargyloxy-1,2,5-thiadiazol-3-yl)pyridine oxalate]	0.3 ng/mL	
CCCCCCCCc1nsnc1C1=CCCN(C)C1 [Compound 60, 3-(4-octyl-1,2,5-thiadiazol-3-yl)-1,2,5,6-tetrahydro-1-methylpyridinium oxalate]	164 ng/mL	
CCCCCCCOc1nsnc1C1=CCCN(C)C1.O=C(O)C(=O)O [Compound 21, 3-(4-heptyloxy-1,2,5-thiadiazol-3-yl)-1,2,5,6-tetrahydro-1-methylpyridine oxalate]	2.4 ng/mL	
CCOCCOCCOc1nsnc1C1=CCCN(C)C1.O=C(O)C(=O)O [Compound 43, 3-(4-(2-(2-ethoxyethoxy)ethoxy)-1,2,5-thiadiazol-3-yl)-1,2,5,6-tetrahydro-1-methylpyridine oxalate]	4.0 ng/mL	
C=CCOc1nsnc1C1=CCCN(C)C1.O=C(O)C(=O)O [Compound 24, 3-(4-(2-propenyloxy)-1,2,5-thiadiazol-3-yl)-1,2,5,6-tetrahydro-1-methylpyridine oxalate]	0.4 ng/mL	
CCCCCCOc1nonc1C1=CCCN(C)C1.O=C(O)C(=O)O [Compound 54, 3-(4-hexyloxy-1,2,5-oxadiazol-3-yl)-1,2,5,6-tetrahydro-1-methylpyridine oxalate]	20 ng/mL	
CCCc1nsnc1C1=CCCN(C)C1 [Compound 63, 3-(4-propyl-1,2,5-thiadiazol-3-yl)-1,2,5,6-tetrahydro-1-methylpyridinium oxalate]	25 ng/mL	

Source: patent publication US5712297A, “Piperdine compounds and their preparation and use” (Novo Nordisk A/S, priority 1989, dated 1998)
